Measured values as given in US9028806B2, “Method for impregnation with supercritical CO2” (Pierre Fabre Medicament, priority 2009, dated 2015).

Key:
[1] = Exploratory Pk on rats, oral route (bioavailability)
Experimental: The study was conducted with exploratory Pk on rats: 2 mg/kg in a single dose, oral route
Administration vehicle: distilled water (Aguettant)
Positive more Electrospray (ESI+) detection LC/MS/MS (liquid chromatography/mass spectrometry/mass spectrometry) bioanalysis method
Pharmacokinetic analysis with Kinetica (Thermo Instruments, US)

[2] = Dissolution kinetics of vinflunine in pH 6.8 buffer; type: physicochemical; details: equivalent to 50 mg vinflunine in 50 ml pH 6.8 buffer, 400 rpm
Experimental: In a 100 ml Erlenmeyer, introduce an accurately measured test sample equivalent to 50 mg of vinflunine. Add 50 ml of pH 6.8 buffer. Place under magnetic stirring at 400 rpm. Take a 2 ml sample under magnetic stirring at 15, 30, 60 and 120 minutes. Filter these samples on Gelman GHP Acrodisc 0.45 μm polypropylene filters. The solution should be clear.
Determine the vinflunine content by means of liquid chromatography.

[3] = Dissolution kinetics of ketoprofen in water at 37° C.; type: physicochemical; details: equivalent to 50 mg ketoprofen in 50 ml water, 400 rpm
Experimental: In a 100 ml Erlenmeyer, introduce an accurately measured test sample equivalent to 50 mg of ketoprofen, pure or impregnating the cross-linked PVP. Add 50 ml of water. Place under magnetic stirring at 400 rpm in a water bath at 37° C.+/−2° C. […] Filter these samples on Gelman GHP Acrodisc 0.45 μm polypropylene filters. The solution should be clear.
Determine the ketoprofen content by means of liquid chromatography.

| SMILES | CL ([1]; fasted rats, 2 mg/kg single dose, oral route) [L/h] | Vinflunine level at 0 ([1]; fasted rats, 2 mg/kg single dose, oral route, time 0) | Vinflunine level at 0.25 ([1]; fasted rats, 2 mg/kg single dose, oral route, time 0.25) | Vinflunine level at 0.5 ([1]; fasted rats, 2 mg/kg single dose, oral route, time 0.5) | Vinflunine level at 1 ([1]; fasted rats, 2 mg/kg single dose, oral route, time 1) | Vinflunine level at 2 ([1]; fasted rats, 2 mg/kg single dose, oral route, time 2) | Vinflunine level at 4 ([1]; fasted rats, 2 mg/kg single dose, oral route, time 4) | Vinflunine level at 6 ([1]; fasted rats, 2 mg/kg single dose, oral route, time 6) | Vinflunine level at 8 ([1]; fasted rats, 2 mg/kg single dose, oral route, time 8) | Vinflunine level at 24 ([1]; fasted rats, 2 mg/kg single dose, oral route, time 24) | AUC(0-t) ([1]; rat, in vivo, po, 2 mg/kg) [ng·h/mL] | Cmax ([1]; rat, in vivo, po, 2 mg/kg) [ng/mL] | Tmax ([1]; rat, in vivo, po, 2 mg/kg) [h] | half-life ([1]; rat, in vivo, po, 2 mg/kg) [h] | Vinflunine Dissolution 15 min ([2]; 15 min) [µg/mL] | Vinflunine Dissolution 30 min ([2]; 30 min) [µg/mL] | Vinflunine Dissolution 60 min ([2]; 60 min) [µg/mL] | Vinflunine Dissolution 120 min ([2]; 120 min) [µg/mL] | Ketoprofen Dissolution 15 min ([3]; 15 min) [µg/mL] | Ketoprofen Dissolution 60 min ([3]; 60 min) [µg/mL] |
| --- | --- | --- | --- | --- | --- | --- | --- | --- | --- | --- | --- | --- | --- | --- | --- | --- | --- | --- | --- | --- |
| CC[C@]12C=CCN3CC[C@@]4(c5cc([C@@]6(C(=O)OC)C[C@@H]7C[C@@H](C(C)(F)F)CN(Cc8c6[nH]c6ccccc86)C7)c(OC)cc5N(C)[C@H]4[C@@](O)(C(=O)OC)[C@@H]1OC(C)=O)[C@@H]32 [Vinflunine base, Vinflunine] | 8.70 | 0 | 19.37 | 11.75 | 17.90 | 14.93 | 13.80 | 12.03 | 10.88 | 2.59 | 200 | 19.4 | 0.25 | 7.9 | 252 | 387 | 520 | 606 |  |  |
| CC(C(=O)O)c1cccc(C(=O)c2ccccc2)c1 (centres unmarked) [ketoprofen, Ketoprofen] |  |  |  |  |  |  |  |  |  |  |  |  |  |  |  |  |  |  | 173 | 171 |
